Laboratory results: patent publication US8916702B2 (priority 2012, dated 2014)
pEC50: −log10 of the molar value.

tested on: HCV pseudoparticles (genotype 1a HCV E1 and E2 envelope, H77C isolate); assay: microbe, parasite or virus in culture; format: cell-based; conditions: Hepatitis C virus, Huh-7, 48 h, HCV pseudoparticle infection of Huh7 cells, luciferase 2 days after infection; average of duplicates

Row | SMILES | pEC50
1 | COC(=O)[C@H](CCNC(=O)C(=O)Nc1cc(F)c(F)c(F)c1)NC(=O)c1ccc(Nc2nc(NC3(c4ccc(Cl)cc4)CC3)nc(OCC(F)(F)F)n2)cc1 [Compound 1504] | > 8.60
2 | O=C(NCCc1ccc(F)cc1)C(=O)NCC[C@H](NC(=O)c1ccc(Nc2nc(NC3(c4ccc(Cl)cc4)CC3)nc(OCC(F)(F)F)n2)cc1)C(=O)O [Compound 1336] | 9.06
3 | COC(=O)[C@H](CNC(=O)C(=O)NCc1cc(F)ccc1F)NC(=O)c1ccc(Nc2nc(NC3(c4ccc(Cl)cc4)CC3)nc(OCC(F)(F)F)n2)cc1 [Compound 1154] | 8.97
4 | COC(=O)[C@H](CCNC(=O)C(=O)Nc1ccc(-c2ccc(-c3ccccc3)cc2)cc1)NC(=O)c1ccc(Nc2nc(NC3(c4ccc(Cl)cc4)CC3)nc(OCC(F)(F)F)n2)cc1 [Compound 1527] | 9.82
5 | COc1ccc(CNC(=O)C(=O)NC[C@H](NC(=O)c2ccc(Nc3nc(NC4(c5ccc(Cl)cc5)CC4)nc(OCC(F)(F)F)n3)cc2)C(=O)O)c(OC)c1 [Compound 1172] | 8.03

same assay, conditions: Hepatitis C virus, Huh-7, 48 h, HCV pseudoparticles (genotype 1a, H77C) in Huh7 cells; average of duplicate; luciferase 2 days after infection

Row | SMILES | pEC50
6 | CCOc1ccc(NC(=O)C(=O)NC[C@H](NC(=O)c2ccc(Nc3nc(NC4(c5ccc(Cl)cc5)CC4)nc(OCC(F)(F)F)n3)cc2)C(=O)OC)cc1 [Compound 3210] | 9.12
7 | CN(CCCNC(=O)c1ccc(Nc2nc(NC3(c4ccc(Cl)cc4)CC3)nc(OCC(F)(F)F)n2)cc1)C(=O)C(=O)Nc1ccc(F)cc1 [Compound 3448] | 10.23

same assay, conditions: Hepatitis C virus, Huh-7, 48 h, HCV pseudoparticles, Huh7 cells, luciferase 2 days after infection; average of duplicates

Row | SMILES | pEC50
8 | O=C(NCC[C@H](NC(=O)c1ccc(Nc2nc(NC3(c4ccc(Cl)cc4)CC3)nc(OCC(F)(F)F)n2)cc1)C(=O)O)C(=O)Nc1cccc(-c2cccnc2)c1 [Compound 3652] | 9.35
9 | Cc1c(Cl)ccc2sc(NC(=O)C(=O)NCC(C)(C)CNC(=O)c3ccc(Nc4nc(NC5(c6ccc(Cl)cc6)CC5)nc(OCC(F)(F)F)n4)cc3)nc12 [Compound 3817] | 9.96

same assay, conditions: Hepatitis C virus, Huh-7, 48 h, read-out: Activity (EC50 class), HCV pseudoparticle infection of Huh7 cells, luciferase 2 days after infection; EC50 expressed as class A/B

Row | SMILES | pEC50
10 | O=C(NC[C@H](NC(=O)c1ccc(Nc2nc(NC3(c4ccc(Cl)cc4)CC3)nc(OCC(F)(F)F)n2)cc1)C(=O)O)C(=O)NC1CCCCC1 [Compound 1174] | 8.00 to 11.00
11 | COC(=O)[C@H](CCNC(=O)C(=O)Nc1cc(F)c(F)c(F)c1)NC(=O)c1ccc(Nc2nc(NC3(c4ccc(Cl)cc4)CC3)nc(OCC(F)(F)F)n2)cc1 [Compound 1504] | 8.00 to 11.00
12 | O=C(NCC1CCCCC1)C(=O)NC[C@@H](NC(=O)c1ccc(Nc2nc(NC3(c4ccc(Cl)cc4)CC3)nc(OCC(F)(F)F)n2)cc1)C(=O)O [Compound 1039] | 8.00 to 11.00
13 | COC(=O)[C@H](CNC(=O)C(=O)Nc1cccc(F)c1)NC(=O)c1ccc(Nc2nc(NC3(c4ccc(Cl)cc4)CC3)nc(OCC(F)(F)F)n2)cc1 [Compound 1249] | 8.00 to 11.00
14 | COC(=O)[C@H](CNC(=O)C(=O)NC1CCC(F)(F)CC1)NC(=O)c1ccc(Nc2nc(NC3(c4ccc(Cl)cc4)CC3)nc(OCC(F)(F)F)n2)cc1 [Compound 1057] | 8.00 to 11.00
15 | O=C(NCC1CCCO1)C(=O)NC[C@@H](NC(=O)c1ccc(Nc2nc(NC3(c4ccc(Cl)cc4)CC3)nc(OCC(F)(F)F)n2)cc1)C(=O)O (stereo partly drawn) [Compound 1042] | 8.00 to 11.00
16 | COC(=O)[C@@H](CCNC(=O)C(=O)NCC1(Cn2ccnc2)CC1)NC(=O)c1ccc(Nc2nc(NC3(c4ccc(Cl)cc4)CC3)nc(OCC(F)(F)F)n2)cc1 [Compound 1385] | 8.00 to 11.00
17 | O=C(NCCc1ccc(F)cc1)C(=O)NCC[C@H](NC(=O)c1ccc(Nc2nc(NC3(c4ccc(Cl)cc4)CC3)nc(OCC(F)(F)F)n2)cc1)C(=O)O [Compound 1336] | 8.00 to 11.00
18 | O=C(NC[C@H](NC(=O)c1ccc(Nc2nc(NC3(c4ccc(Cl)cc4)CC3)nc(OCC(F)(F)F)n2)cc1)C(=O)O)C(=O)Nc1cn[nH]c1 [Compound 1354] | 8.00 to 11.00
19 | COC(=O)[C@H](CNC(=O)C(=O)NCc1cc(F)ccc1F)NC(=O)c1ccc(Nc2nc(NC3(c4ccc(Cl)cc4)CC3)nc(OCC(F)(F)F)n2)cc1 [Compound 1154] | 8.00 to 11.00
20 | CCC(CC)NC(=O)C(=O)NCC[C@H](NC(=O)c1ccc(Nc2nc(NC3(c4ccc(Cl)cc4)CC3)nc(OCC(F)(F)F)n2)cc1)C(=O)O [Compound 1126] | 8.00 to 11.00
21 | O=C(NCC[C@H](NC(=O)c1ccc(Nc2nc(NC3(c4ccc(Cl)cc4)CC3)nc(OCC(F)(F)F)n2)cc1)C(=O)O)C(=O)NCCn1cncn1 [Compound 1342] | 8.00 to 11.00
22 | CC1(C)CC(NC(=O)C(=O)NC[C@H](NC(=O)c2ccc(Nc3nc(NC4(c5ccc(Cl)cc5)CC4)nc(OCC(F)(F)F)n3)cc2)C(=O)O)CC(C)(C)C1 [Compound 1077] | 8.00 to 11.00
23 | COc1ccc(CNC(=O)C(=O)NCC[C@H](NC(=O)c2ccc(Nc3nc(NC4(c5ccc(Cl)cc5)CC4)nc(OCC(F)(F)F)n3)cc2)C(=O)O)cc1OC [Compound 1184] | 8.00 to 11.00
24 | CC1CCC(NC(=O)C(=O)NCC[C@H](NC(=O)c2ccc(Nc3nc(NC4(c5ccc(Cl)cc5)CC4)nc(OCC(F)(F)F)n3)cc2)C(=O)O)CC1 (stereo partly drawn) [Compound 1129] | 8.00 to 11.00
25 | COC(=O)[C@H](CCNC(=O)C(=O)Nc1ccc(-c2ccc(-c3ccccc3)cc2)cc1)NC(=O)c1ccc(Nc2nc(NC3(c4ccc(Cl)cc4)CC3)nc(OCC(F)(F)F)n2)cc1 [Compound 1527] | 8.00 to 11.00
26 | COC(=O)[C@H](CNC(=O)C(=O)NCc1cccc(F)c1F)NC(=O)c1ccc(Nc2nc(NC3(c4ccc(Cl)cc4)CC3)nc(OCC(F)(F)F)n2)cc1 [Compound 1148] | 8.00 to 11.00
27 | COc1ccc(CNC(=O)C(=O)NC[C@H](NC(=O)c2ccc(Nc3nc(NC4(c5ccc(Cl)cc5)CC4)nc(OCC(F)(F)F)n3)cc2)C(=O)O)c(OC)c1 [Compound 1172] | 8.00 to 11.00
28 | COc1ccc(NC(=O)C(=O)NCC[C@H](NC(=O)c2ccc(Nc3nc(NC4(c5ccc(Cl)cc5)CC4)nc(OCC(F)(F)F)n3)cc2)C(=O)O)cc1 [Compound 1274] | 8.00 to 11.00
29 | O=C(NC[C@H](NC(=O)c1ccc(Nc2nc(NC3(c4ccc(Cl)cc4)CC3)nc(OCC(F)(F)F)n2)cc1)C(=O)O)C(=O)Nc1cccnc1 [Compound 1367] | 8.00 to 11.00

same assay, conditions: Hepatitis C virus, Huh-7, 48 h, read-out: Activity (EC50 class), HCV pseudoparticles, Huh7 cells, luciferase 2 days after infection; average of duplicates

Row | SMILES | pEC50
30 | O=C(NCC[C@H](NC(=O)c1ccc(Nc2nc(NC3(c4ccc(Cl)cc4)CC3)nc(OCC(F)(F)F)n2)cc1)C(=O)O)C(=O)Nc1cccc(-c2cccnc2)c1 [Compound 3652] | 8.00 to 11.00
31 | Cc1c(Cl)ccc2sc(NC(=O)C(=O)NCC(C)(C)CNC(=O)c3ccc(Nc4nc(NC5(c6ccc(Cl)cc6)CC5)nc(OCC(F)(F)F)n4)cc3)nc12 [Compound 3817] | 8.00 to 11.00

same assay, conditions: Hepatitis C virus, Huh-7, read-out: Activity (EC50 class), HCV pseudoparticles (genotype 1a, H77C) in Huh7 cells; EC50 expressed as class A/B

Row | SMILES | pEC50
32 | CCOc1ccc(NC(=O)C(=O)NC[C@H](NC(=O)c2ccc(Nc3nc(NC4(c5ccc(Cl)cc5)CC4)nc(OCC(F)(F)F)n3)cc2)C(=O)OC)cc1 [Compound 3210] | 8.00 to 11.00
33 | CN(CCCNC(=O)c1ccc(Nc2nc(NC3(c4ccc(Cl)cc4)CC3)nc(OCC(F)(F)F)n2)cc1)C(=O)C(=O)Nc1ccc(F)cc1 [Compound 3448] | 8.00 to 11.00
